Structures can show the parent of a compound that is named as a salt. Where two headings read alike, the source gives them in different places.

For data set [1] the following is noted: cited from earlier work; for vasodilatory activity: earlier patents and literature; for pharmacological activity as previously considered: up to the present, in the pharmacological field, earlier literature.
Data set [2] is described as follows: pharmacological study: stimulation or protection of cerebral functions. Type of data set: in vivo. The following applies: thorough pharmacological study. Here is the method: The stimulating or protecting activities have been shown particularly by the test of the mnesic retention of exploratory activity carried out in accordance with the following method: in an ACTIMETRE APELAB apparatus (BOISSIER and SIMON, Arch. Inter. Pharmacodyn. 158, 212, (1965), the exploratory activity of SWISS-WEBSTER male mice was measured for 5 minutes, then the animals were given an intraperitoneal injection or oral administration of the derivatives of formula (I), the salts thereof or of physiological serum. After a week, the exploratory activity of the treated animals is again measured and the effect of the mnesic retention is measured by an habituation, i.e., by a statistically significant reduction (t of STUDENT in paired groups) of the exploratory activity.

The nature of data set [3]: test of the mnesic retention of exploratory activity (habituation). In kind it is in vivo, SWISS-WEBSTER male mice. Conditions: Mus musculus, ip, 168 h, read-out: % of the diminution of the exploratory activity; for inhibition in vivo at 10 mg/kg: dose 10 mg/kg i.p.
Data set [4] in a line: approximate acute toxicity (method of MILLER and TAINTER). The following applies: in vivo; for mortality: read-out: lethality. How it is done:
The approximate acute toxicity is determined according to the method described by MILLER and TAINTER in Proc. Soc. Exp. Biol. Med. 57, 261, (1944).

Where [5] appears, read: dose 3 mg/kg i.p., retest after one week, mice.

In the case of `CCOC(=O)CN1CCN(C(=O)/C=C/c2cc(OC)c(OC)c(OC)c2)CC1`, in data set [1], the vasodilatory activity entry was “peripheral and coronary vasodilators”.

On to `COc1cc(/C=C/C(=O)N2CCN(CC(=O)N3CCCC3)CC2)cc(OC)c1OC`, for which the vasodilatory activity entry in data set [1] was “peripheral and coronary vasodilators”.

Take `COc1cc(/C=C/C(=O)N2CCN(CC(=O)O)CC2)cc(OC)c1OC` [Code Number 71, trans 1-(3,4,5-trimethoxy)cinnamoyl 4-hydroxycarbonylmethyl piperazine, hydrochloride]: the “activity in the stimulation or protection of cerebral functions” value in data set [2] is reported as “important activities in the stimulation or protection of cerebral functions”. Moreover, the “pharmacological activity as previously considered” value (from here on “pharmacological activity”) in data set [1] (listed as Ia, hydrochloride) was “inactive”.

`COc1cc(/C=C\C(=O)N2CCN(CC(=O)N3CCCC3)CC2)cc(OC)c1OC` [Code Number 72, cis 1-(3,4,5-trimethoxy)cinnamoyl 4-pyrrolidinocarbonylmethyl)piperazine, oxalate]: in data set [2], the “activity in the stimulation or protection of cerebral functions” value is on record as “important activities in the stimulation or protection of cerebral functions”. Besides, the “pharmacological activity” value in data set [1] (listed as Ib) was “inactive”.

`COc1cc(/C=C/C(=O)N2CCN(CC(=O)NC(C)C)CC2)cc(OC)c1OC` [compound 65]: in data set [3] (retest after one week, mice), the inhibition in vivo at 10 mg/kg stood at 17.9%. For the same molecule, in data set [4] (iv), the LD50 was 475 mg/kg.

Turning to `COc1cc(/C=C/C(=O)N2CCN(CC(=O)N3CCCCC3)CC2)cc(OC)c1OC` [compound 66], in data set [3] (setting [5]), the inhibition in vivo at 3 mg/kg amounted to 35.2%. The molecule also yielded a 50% lethal dose (LD50) in data set [4] (po) of 2250 mg/kg.

Turning to `COc1cc(/C=C/C(=O)N2CCN(CC(=O)N3CCCCCCC3)CC2)cc(OC)c1OC` [compound 67], in data set [3] (setting [5]), the inhibition in vivo at 3 mg/kg was 26.4%. The molecule further had an LD50 in data set [4] (iv) of 225 mg/kg.

As to `COc1ccc(CCN(C)C(=O)CN2CCN(C(=O)/C=C/c3cc(OC)c(OC)c(OC)c3)CC2)cc1OC` [compound 68], in data set [3] (retest after one week, mice), the inhibition in vivo at 10 mg/kg worked out at 15.8%. Also, the LD50 in data set [4] (iv) stood at 200 mg/kg.

With `COc1cc(/C=C/C(=O)N2CCN(CC(=O)NC(C)C)CC2)cc(OC)c1O` [compound 69], in data set [3] (setting [5]), the inhibition in vivo at 3 mg/kg is 23.8%. In addition, the LD50 in data set [4] (po) worked out at 2000 mg/kg. The mortality in data set [4] (po, 2000 mg/kg p.o.) turned out to be 0%.

Consider `COc1cc(CCC(=O)N2CCN(CC(=O)NC(C)C)CC2)cc(OC)c1OC` [compound 70], for which the inhibition in vivo at 30 mg/kg in data set [3] (dose 30 mg/kg i.p., retest after one week, mice) was found to be 16.2%. In data set [4] (po), the LD50 is 2000 mg/kg. The mortality in data set [4] (po, 2000 mg/kg p.o.) came out at 0%.

As for `COc1cc(/C=C/C(=O)N2CCN(CC(=O)O)CC2)cc(OC)c1OC` [compound 71], the inhibition in vivo at 1 mg/kg in data set [3] (dose 1 mg/kg i.p., retest after one week, mice) was determined as 31.9%. This molecule returned an LD50 in data set [4] (po) of 1000 mg/kg. In data set [4] (po, 1000 mg/kg p.o.), the mortality is 0%.

For `COc1cc(/C=C\C(=O)N2CCN(CC(=O)N3CCCC3)CC2)cc(OC)c1OC` [compound 72], the inhibition in vivo at 3 mg/kg in data set [3] was 21%.

On to `COc1cc(/C=C/C(=O)N2CCN(CC(=O)O)CC2)cc(OC)c1OC` [drawing 11], for which the “pharmacological activity” value in data set [1] is “non-active”.

On to `COc1cc(/C=C\C(=O)N2CCN(CC(=O)N3CCCC3)CC2)cc(OC)c1OC` [drawing 13], for which the “pharmacological activity” value in data set [1] is on record as “non-active”.

Consider `COc1cc(CCC(=O)N2CCN(CC(=O)NC(C)C)CC2)cc(OC)c1OC` [drawing 15], for which the vasodilatory activity result in data set [1] is “peripheral and coronary vasodilators”.

In the case of `COc1cc(/C=C/C(=O)N2CCN(CC(=O)NC(C)C)CC2)cc(OC)c1O` [drawing 16], the vasodilatory activity result in data set [1] is “coronary vasodilator”.

These data come from patent US4500531A, “Therapeutical use of (1-cinnamoyl or 1-phenethylcarbonyl) piperazine derivatives” (priority 1982, dated 1985).
